Measured values: patent US20090311344A1, “Dosing Regimen” (priority 2008, published 2009)

Tests used:
[1] = test system: HT-29 human colon carcinoma xenografts; assay: HT-29 human colon carcinoma xenografts in athymic nude mice: tumor growth delay; assay type: in vivo
Text: Administration of the TPO Mimetic Peptide Compound One Hour After Administration of Carboplatin. Effect on activity and toxicity of carboplatin against HT-29 human colon carcinoma xenografts established in athymic nude mice.
(§1) Five groups (n=10) of female athymic nude mice (Harlan) bearing established (˜100 mm^3) HT-29 human colon carcinomas on Day 1. Groups 6-9 (n=20) were included for blood sampling and received the same treatment as Groups 1-4, respectively. Treatment effects on the growth of tumors were evaluated by tumor growth delay (TGD), which is the difference between median time to endpoint (TTE) tumor size in a treatment group compared to a control group. The effect of these treatments on platelet and erythrocyte precursors was determined from CBC analysis and reticulocyte counts of blood samples taken on Days 10, 13, 21 and 24.
Xenografts were initiated from HT-29 human colon carcinoma xenografts maintained in athymic nude mice. HT-29 tumor fragments (1 mm^3) were implanted subcutaneously into the right flank of each test mouse, and tumor growth was monitored. On Day 1 of the study, the animals were pair-matched into five groups (Groups 1-5) for evaluation of efficacy and four groups for sampling (Groups 6-9). Groups 1-5 each consisted of ten animals with tumor sizes ranging from 75-126 mm^3 and group mean tumor sizes of 99 mm^3. Groups 6-9 each consisted of twenty animals with tumor sizes ranging from 40-221 mm^3 and group mean tumor sizes of 84 mm^3. Tumor weight was estimated with the assumption that 1 mg is equivalent to 1 mm^3 of tumor volume. Volume was calculated using the formula:
(§2) Group 1 mice (n=10) were untreated tumor growth controls. Group 2 mice (n=10) received 60 mg/kg carboplatin administered intraperitoneally (i.p.) on Days 1, 2, 12, and 13. Group 3 mice (n=10) received 0.2 mg/kg of the TPO mimetic peptide compound administered intravenously (i.v.) via tail vein on Days 2 and 13. Groups 4 and 5 received the combination of carboplatin (60 mg/kg i.p. on Days 1, 2, 12, and 13) and 0.2 mg/kg of the TPO mimetic peptide compound on Days 2, 13 and Days 2, 13, 23, respectively, administered intravenously (i.v.) one hour after carboplatin dosing. Groups 6-9 (n=20 each) were included for blood sampling and received the same treatments as Groups 1-4, respectively. For all groups, each dose of drug was given in a volume of 0.2 mL per 20 g of body weight (10 mL/kg), and was scaled to the body weight of each animal.
Tumors were measured twice each week using calipers. Each animal was euthanized when its tumor reached the predetermined endpoint size of 1000 mm^3, or on the final day of the study (Day 62), whichever came first. The time to endpoint (TTE) for each mouse was calculated from the following equation: […]
where b is the intercept and m is the slope of the line obtained by linear regression of a log-transformed tumor growth data set. The data set was comprised of the first observation that exceeded the study endpoint volume and the three consecutive observations that immediately preceded the attainment of the endpoint volume.
Treatment outcome was determined from tumor growth delay (TGD), which is defined as the increase in the median time to endpoint (TTE) in a treatment group compared to the control group:
where: • T=median TTE for a treatment group, • C=median TTE for the control group (Group 1)
Treatment may cause partial regression (PR) or complete regression (CR) of the tumor in an animal. In a PR response, the tumor volume is 50% or less of its Day 1 volume for three consecutive measurements during the course of the study, and equal to or greater than 13.5 mm^3 for one or more of these three measurements. In a CR response, the tumor volume is less than 13.5 mm^3 for three consecutive measurements during the course of the study. An animal with a CR response at the termination of a study is additionally classified as a long-term tumor-free survivor (LTTFS). […]

[2] = test system: platelets, reticulocytes, hematocrit; assay: CBC analysis and reticulocyte counts in HT-29 tumor-bearing mice (Groups 6-9); assay type: in vivo, athymic nude mice; settings: for mean reticulocyte values: Group 7
Procedure: as §1, with “The effect of these treatments on platelet and erythrocyte precursors was determined from CBC analysis and reticulocyte counts of blood samples taken on Days 10, 13, 21 and 24.” left out
as §2
[…] Blood was collected into EDTA tubes, and complete blood counts (CBC) with differential were determined using a Cell-Dyn® 3700 System (Abbott Diagnostics) for automated hematology analyses. Reticulocyte values were determined. In addition, for Groups 1-5, five animals per group were euthanized at or just after endpoint by terminal cardiac puncture under CO2 anesthesia, and gross necropsies were performed. Blood samples were collected into EDTA tubes, and CBC with differential and reticulocyte values were performed as previously described. All other animals in Groups 1-5 were euthanized at endpoint without sampling.

## N.N.O=C([O-])C1(C(=O)[O-])CCC1.[Pt+2] [carboplatin, Carboplatin, reference compound]
[1]; Group 2
  regression responses: No regression responses were recorded
[1]; Group 2, n=10
  number of 62-day survivors: 1
[1]; Group 2, one animal
  tumor volume of the animal remaining in the study on Day 62: 600 mm^3
[1]; Group 2: carboplatin 60 mg/kg i.p. Days 1, 2, 12, 13, (n animals) in brackets
  Tumor Burden Median: 600(1)
[1]; Groups 2-4, relative to untreated Group 1, carboplatin 60 mg/kg i.p. Days 1, 2, 12, 13, TPO mimetic peptide compound 0.2 mg/kg i.v. Days 2, 13
  TGD (tumor growth delay): 22.8 days
[1]; HT-29 xenografts, athymic nude mice, n=10, carboplatin 60 mg/kg i.p. Days 1, 2, 12, 13, TPO mimetic peptide compound 0.2 mg/kg i.v. Days 2, 13, Groups 2-4, vs untreated Group 1
  % Tumor Growth Delay: 92%
[1]; HT-29 xenografts, athymic nude mice, n=10, carboplatin 60 mg/kg i.p. Days 1, 2, 12, 13, TPO mimetic peptide compound 0.2 mg/kg i.v. Days 2, 13, Groups 2-4, endpoint 1000 mm^3
  Median TTE: 47.6 days
[2]; Days 13, 21, and 23
  mean HCT values of Group 7 compared to Group 9: slightly lower
[2]; Day 10 (near the expected nadir)
  mean reticulocyte values: negligible
[2]; Day 13
  mean reticulocyte values: higher than in control mice
[2]; Day 21 after the second cycle of treatment
  mean reticulocyte values: low
[2]; Groups 7-9
  mean hematocrit (HCT) values compared to untreated mice (Group 6): lower mean HCT values than controls
[2]; Groups 7-9, regimens as Groups 2-4, Days 10, 13, 21, and 23
  mean platelet counts compared to untreated Group 6 controls: lower mean platelet counts at all time points
